From US8466162B2, “5-alkynyl-pyridines” (Boehringer Ingelheim International GmbH, priority 2011, dated 2013)

Key:
PI3Kalpha = molecular target: T1, PI3Kalpha (Homo sapiens, UniProt P42336); assay: Inhibition of PI3Kalpha-induced PIP-2 phosphorylation (filter-binding assay, 33P-ATP); assay type: biochemical; conditions: PI3 Kinase alpha (p85alpha/His-p110alpha), 1 μM ATP; read-out: IC50 PI3Kα
T1 construct: His (N); made in house; host or cells: SF9 insect cells (baculovirus co-infection)

H460 cells = assay: alamarBlue H460 cell assay (antiproliferative/cytotoxicity); assay type: cell-based; conditions: NCI-H460; H460 human lung carcinoma cells
Outline: (§1)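 Cells treated 5–6 days at 37 °C with compound, 10 μM top final concentration, 1:3 steps over 10 dilutions, in duplicate. alamarBlue then added for 8 h; fluorescence read at ex 530–560/em 590 nm, medium blank subtracted, EC50 fitted.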

MB453 cells = assay: alamarBlue MB453 cell assay (antiproliferative/cytotoxicity); assay type: cell-based; conditions: Homo sapiens; MDA MB 453 breast cancer cell line
Outline: as §1

U87 cells = assay: alamarBlue U87 cell assay (antiproliferative/cytotoxicity); assay type: cell-based; conditions: U-87MG human glioblastoma cells
Outline: as §1

MCF7 cells = assay: alamarBlue MCF7 cell assay (antiproliferative/cytotoxicity); assay type: cell-based; conditions: MCF7 human breast cancer cell line
Outline: as §1

BT474 cells = assay: alamarBlue BT474 cell assay (antiproliferative/cytotoxicity); assay type: cell-based; conditions: BT-474 human breast cancer cell line, 5-6 days incubation
Outline: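 After overnight plating of 3000 cells per well, compounds are applied as ten threefold dilutions (highest final 10 μM) in duplicate for 5-6 days. Viability is then gauged by an 8 h alamarBlue incubation and fluorescence readout, with EC50 calculated from medium-blank-corrected signals.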

T1 sequence (P27986 whole entry): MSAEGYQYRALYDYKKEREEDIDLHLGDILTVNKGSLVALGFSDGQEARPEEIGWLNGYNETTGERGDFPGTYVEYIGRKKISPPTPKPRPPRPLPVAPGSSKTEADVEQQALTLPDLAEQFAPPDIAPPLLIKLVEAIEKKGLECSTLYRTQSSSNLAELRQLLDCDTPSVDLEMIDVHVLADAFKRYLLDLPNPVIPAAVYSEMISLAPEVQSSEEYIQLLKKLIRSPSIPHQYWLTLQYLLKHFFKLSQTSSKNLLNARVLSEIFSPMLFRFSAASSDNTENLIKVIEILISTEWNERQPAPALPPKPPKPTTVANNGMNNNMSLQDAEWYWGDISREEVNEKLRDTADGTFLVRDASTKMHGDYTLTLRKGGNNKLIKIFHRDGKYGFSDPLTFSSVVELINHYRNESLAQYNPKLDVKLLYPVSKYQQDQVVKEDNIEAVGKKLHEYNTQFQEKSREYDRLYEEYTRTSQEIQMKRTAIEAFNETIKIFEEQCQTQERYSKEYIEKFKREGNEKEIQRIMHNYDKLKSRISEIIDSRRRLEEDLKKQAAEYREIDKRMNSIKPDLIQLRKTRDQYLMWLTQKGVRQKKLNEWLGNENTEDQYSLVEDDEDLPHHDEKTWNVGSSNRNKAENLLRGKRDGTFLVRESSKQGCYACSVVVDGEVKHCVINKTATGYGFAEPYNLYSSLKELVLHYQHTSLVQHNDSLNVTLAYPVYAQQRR
T1 sequence (P42336 whole entry): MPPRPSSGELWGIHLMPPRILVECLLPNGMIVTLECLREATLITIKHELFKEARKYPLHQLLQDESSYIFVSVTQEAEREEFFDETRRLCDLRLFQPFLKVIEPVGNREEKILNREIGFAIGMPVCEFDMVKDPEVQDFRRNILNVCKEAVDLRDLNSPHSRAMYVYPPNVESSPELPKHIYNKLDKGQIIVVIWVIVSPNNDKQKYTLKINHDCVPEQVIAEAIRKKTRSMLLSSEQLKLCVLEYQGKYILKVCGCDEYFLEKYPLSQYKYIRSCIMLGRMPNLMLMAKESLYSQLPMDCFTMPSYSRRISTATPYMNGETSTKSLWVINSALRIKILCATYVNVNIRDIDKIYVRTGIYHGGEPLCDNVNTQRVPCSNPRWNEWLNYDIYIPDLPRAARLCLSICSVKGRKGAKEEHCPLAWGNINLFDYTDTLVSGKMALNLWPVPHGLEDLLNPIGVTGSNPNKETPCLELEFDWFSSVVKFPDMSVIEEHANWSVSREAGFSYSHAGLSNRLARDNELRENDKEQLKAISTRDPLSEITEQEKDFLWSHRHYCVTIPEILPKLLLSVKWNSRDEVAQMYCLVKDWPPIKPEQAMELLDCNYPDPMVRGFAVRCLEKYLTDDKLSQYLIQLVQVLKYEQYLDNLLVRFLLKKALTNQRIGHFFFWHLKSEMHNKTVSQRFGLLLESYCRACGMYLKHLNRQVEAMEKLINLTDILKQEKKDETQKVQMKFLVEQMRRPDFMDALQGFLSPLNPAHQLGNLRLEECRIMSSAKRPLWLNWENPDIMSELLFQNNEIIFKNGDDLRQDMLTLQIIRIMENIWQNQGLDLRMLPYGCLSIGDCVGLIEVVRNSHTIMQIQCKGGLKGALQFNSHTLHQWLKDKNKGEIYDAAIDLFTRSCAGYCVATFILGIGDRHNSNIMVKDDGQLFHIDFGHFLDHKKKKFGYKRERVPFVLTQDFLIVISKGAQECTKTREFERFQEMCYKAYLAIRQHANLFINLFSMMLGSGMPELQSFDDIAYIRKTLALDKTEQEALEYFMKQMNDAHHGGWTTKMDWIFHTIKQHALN

SMILES	IC50 (PI3Kalpha) [nM]	EC50 (H460 cells) [nM]	EC50 (MB453 cells) [nM]	EC50 (U87 cells) [nM]	EC50 (MCF7 cells) [nM]	EC50 (BT474 cells) [nM]
CCc1ncnc(-c2ccnc(C)c2)c1C#Cc1cnc(C)c(NS(=O)(=O)c2ccc(CNC(C)=O)cc2)c1 [Example 94, N-(4-{5-[4-Ethyl-6-(2-methyl-pyridin-4-yl)-pyrimidin-5-ylethynyl]-2-methyl-pyridin-3-ylsulfamoyl}-benzyl)-acetamide]	1	2580	514	2320	580	644
CCc1ncnc(-c2ccc(OC)cc2F)c1C#Cc1cnc(C)c(NS(C)(=O)=O)c1 [Example 71, N-{5-[4-Ethyl-6-(2-fluoro-4-methoxy-phenyl)-pyrimidin-5-ylethynyl]-2-methyl-pyridin-3-yl}-methanesulfonamide]	9	683	558	1300	389	1020
COc1ncc(C#Cc2c(C)ncnc2-c2ccc(C)nc2)cc1NS(=O)(=O)c1ccc(F)cc1F [Example 47, 2,4-Difluoro-N-{2-methoxy-5-[4-methyl-6-(6-methyl-pyridin-3-yl)-pyrimidin-5-ylethynyl]-pyridin-3-yl}-benzenesulfonamide]	0.74	7	29	70	18	43
CCc1ncnc(-c2cccc(C(F)(F)F)c2OC)c1C#Cc1cnc(C)c(NS(C)(=O)=O)c1 [Example 7, N-{5-[4-Ethyl-6-(2-methoxy-3-trifluoromethyl-phenyl)-pyrimidin-5-ylethynyl]-2-methyl-pyridin-3-yl}-methanesulfonamide]	2	358	381	475	223	543
CCc1ncnc(-c2ccc(CNC(=O)OC(C)(C)C)nc2)c1C#Cc1cnc(C)c(NS(=O)(=O)c2ccccc2C(F)(F)F)c1 [Example 49, (5-{6-Ethyl-5-[6-methyl-5-(2-trifluoromethyl-benzenesulfonylamino)-pyridin-3-ylethynyl]-pyrimidin-4-yl}-pyridin-2-ylmethyl)-carbamic acid tert-butyl ester]	2	120	169	241	57	207
CCc1ncnc(-c2ccnc(C)c2)c1C#Cc1cnc(C)c(NS(=O)(=O)c2ccc(OC)cc2)c1 [Example 87, N-{5-[4-Ethyl-6-(2-methyl-pyridin-4-yl)-pyrimidin-5-ylethynyl]-2-methyl-pyridin-3-yl}-4-methoxy-benzenesulfonamide]	5	240	505	887	372	381
CCc1ncnc(-c2ccc(C)nc2)c1C#Cc1cnc(C)c(NS(=O)(=O)c2ccc(F)cc2F)c1 [Example 9, N-{5-[4-Ethyl-6-(6-methyl-pyridin-3-yl)-pyrimidin-5-ylethynyl]-2-methyl-pyridin-3-yl}-2,4-difluoro-benzenesulfonamide]	0.54	49	36	248	7	24
Cc1cc(-c2ncnc(C)c2C#Cc2cnc(C)c(NS(C)(=O)=O)c2)ccn1 [Example 38, N-{2-Methyl-5-[4-methyl-6-(2-methyl-pyridin-4-yl)-pyrimidin-5-ylethynyl]-pyridin-3-yl}-methanesulfonamide]	2	2600	317	893	186	344
CCc1ncnc(-c2ccnc(C)c2)c1C#Cc1cnc(C)c(NS(=O)(=O)c2ccc(C)cc2)c1 [Example 86, N-{5-[4-Ethyl-6-(2-methyl-pyridin-4-yl)-pyrimidin-5-ylethynyl]-2-methyl-pyridin-3-yl}-4-methyl-benzenesulfonamide]	1	208	492	697	56	302
CCOc1ccc(-c2ncnc(CC)c2C#Cc2cnc(C)c(NS(C)(=O)=O)c2)cc1OCC [Example 23, N-{5-[4-(3,4-Diethoxy-phenyl)-6-ethyl-pyrimidin-5-ylethynyl]-2-methyl-pyridin-3-yl}-methanesulfonamide]	0.58	109	123	470	45	119
COc1ccc(-c2ncnc(C)c2C#Cc2cnc(OC)c(NS(=O)(=O)c3ccc(F)cc3F)c2)cc1OC [Example 45, N-{5-[4-(3,4-Dimethoxy-phenyl)-6-methyl-pyrimidin-5-ylethynyl]-2-methoxy-pyridin-3-yl}-2,4-difluoro-benzenesulfonamide]	1	11	34	131	5	10
CCc1ncnc(-c2ccnc(C)c2)c1C#Cc1cnc(C)c(NS(=O)(=O)c2ccccc2C)c1 [Example 89, N-{5-[4-Ethyl-6-(2-methyl-pyridin-4-yl)-pyrimidin-5-ylethynyl]-2-methyl-pyridin-3-yl}-2-methyl-benzenesulfonamide]	0.88	319	524	827	50	198
CCc1ncnc(-c2ccnc(C)c2)c1C#Cc1cnc(C)c(NS(=O)(=O)c2ccc(F)cc2F)c1 [Example 10, N-{5-[4-Ethyl-6-(2-methyl-pyridin-4-yl)-pyrimidin-5-ylethynyl]-2-methyl-pyridin-3-yl}-2,4-difluoro-benzenesulfonamide]	0.56	92	69	326	29	75
CCc1ncnc(-c2ccnc(C)c2)c1C#Cc1cnc(C)c(NS(=O)(=O)c2ccccc2)c1 [Example 83, N-{5-[4-Ethyl-6-(2-methyl-pyridin-4-yl)-pyrimidin-5-ylethynyl]-2-methyl-pyridin-3-yl}-benzenesulfonamide]	0.65	57	86	227	29	103
CCc1ncnc(-c2cc(C)nc(C)c2)c1C#Cc1cnc(C)c(NS(C)(=O)=O)c1 [Example 6, N-{5-[4-(2,6-Dimethyl-pyridin-4-yl)-6-ethyl-pyrimidin-5-ylethynyl]-2-methyl-pyridin-3-yl}-methanesulfonamide]	1	169	49	243	28	104
CCc1ncnc(-c2cccc(C#N)c2)c1C#Cc1cnc(C)c(NS(C)(=O)=O)c1 [Example 55, N-{5-[4-(3-Cyano-phenyl)-6-ethyl-pyrimidin-5-ylethynyl]-2-methyl-pyridin-3-yl}-methanesulfonamide]	3	945	317	609	126	302
CCc1ncnc(-c2ccnc(C)c2)c1C#Cc1cnc(C)c(NS(=O)(=O)c2cccnc2)c1 [Example 91, Pyridine-3-sulfonic acid {5-[4-ethyl-6-(2-methyl-pyridin-4-yl)-pyrimidin-5-ylethynyl]-2-methyl-pyridin-3-yl}-amide]	0.39	799	164	476	137	206
